Experiment: Effective concentration of compound was determined for electrophysiological properties on Ionotropic glutamate receptor AMPA 1 (GluR1) using […] Xenopus laevis oocytes

NC(Cc1o[nH]c(=O)c1Cl)C(=O)O [(R,S)-2-amino-3-(4-chloro-3-hydroxy-5-isoxazolyl)propionate]
EC50: 4.7 µM

Source: BindingDB's records for doi:10.1021/jm020588f (The Danish University of Pharmaceutical Sciences, 2003)
